Results: patent US20070060620A1, “Use of RAR retinoid agonists to increase sperm count and sperm mobility in males” (priority 2005, published 2007)

Columns and labels:
[1] = tested on: sperm count and sperm motility; details: oral retinoids used for psoriasis or acne; cited from earlier work
[2] = phase 2 studies in patients with psoriasis and acne: systemic side-effect profile; assay type: in vivo, human; details: compared with acitretin/etretinate and isotretinoin
[3] = plasma levels and half-life after clinical dosing with tazarotene; assay type: in vivo
Excerpt: Thus, tazarotene and other RAR-specific retinoids are used in the method of the present invention to help with male infertility that is due to low sperm counts and/or low sperm motility. Furthermore, retinoids such as tazarotene may be used in any situation in which couples are trying to conceive, where a boost to sperm production/motility could bring about an increase in the chances that a female could become pregnant. As a practical matter, since retinoids at doses likely to be effective in these circumstances are highly teratogenic, an unintended effect might arise from the transfer of the retinoid to a female in the ejaculate of the male. […] Thus, in a period of 3 days, levels of retinoid in plasma (and also in seminal fluid) would be less than 2%, and after about one week would be less than 0.01% of the original levels. Clinical dosing with tazarotene (eg at 3-6 mg) provide levels of tazarotenic acid (the major metabolite of tazarotene) in plasma of about 75-150 ng/mL study. Thus, in 3 days, plasma levels would be expected to drop to about 2-3 ng/mL (endogenous levels of retinoid agonists such as tretinoin, isotretinoin and 4-oxo-13-cis retinoic acid may easily total over 6 ng/mL). Sperm count and motility are likely to remain elevated for some time, since sperm maturation occurs over a period of 72-74 days.

SMILES	effect on sperm count and sperm motility [1]	systemic side-effect profile [2]	levels of retinoid in plasma (and also in seminal fluid) relative to the original levels ([3]; after about one week of washout)	half-life ([3]; human, plasma, read-out: effective half-life in plasma) [h]	levels of retinoid in plasma (and also in seminal fluid) relative to the original levels ([3]; in a period of 3 days of washout)
COc1cc(C)c(/C=C/C(C)=C/C=C/C(C)=C/C(=O)O)c(C)c1C [acitretin]	increase in sperm count and sperm motility	–	–	–	–
CCOC(=O)/C=C(C)/C=C/C=C(C)/C=C/c1c(C)cc(OC)c(C)c1C [etretinate]	increase in sperm count and sperm motility	–	–	–	–
CC1=C(/C=C/C(C)=C/C=C/C(C)=C\C(=O)O)C(C)(C)CCC1 [isotretinoin]	increase in sperm count and sperm motility	–	–	–	–
CCOC(=O)c1ccc(C#Cc2ccc3c(c2)C(C)(C)CCS3)nc1 [tazarotene]	–	far better than those of acitretin/etretinate and isotretinoin	less than 0.01%	7 to 12	less than 2%
